Broadly, the melting point is the temperature, or range, at which the solid turns liquid. One may read the IC50 as the concentration that inhibits the measured activity by half. Read a low IC50 as inhibition by little substance.

Data set [1] concerns the target T1, SCD (Mus musculus, UniProt P13516).
T1 sequence (P13516 1-355): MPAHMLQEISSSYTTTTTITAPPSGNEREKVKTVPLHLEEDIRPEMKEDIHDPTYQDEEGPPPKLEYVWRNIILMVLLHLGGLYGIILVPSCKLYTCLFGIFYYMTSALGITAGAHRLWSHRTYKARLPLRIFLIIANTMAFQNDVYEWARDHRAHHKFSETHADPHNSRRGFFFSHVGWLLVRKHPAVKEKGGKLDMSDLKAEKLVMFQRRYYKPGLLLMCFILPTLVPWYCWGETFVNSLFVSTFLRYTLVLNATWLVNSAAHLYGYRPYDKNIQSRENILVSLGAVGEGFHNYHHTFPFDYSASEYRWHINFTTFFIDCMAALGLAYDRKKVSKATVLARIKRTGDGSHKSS
Kind of data set: Mouse SCD IC50 determination for compounds active in the HTS assay. In kind it is biochemical.
Description: The compounds are analyzed with an HTS microsomal assay. The activities are defined in terms of % SCD enzyme activity remaining at the selected concentration (e.g., 10 μM) of the test compounds.

The test system of data set [2] is HEPG2. Kind of data set: HEPG2 IC50. Type of data set: cell-based. The following applies: Homo sapiens.
The target of data set [3] is T2, stearoyl-CoA desaturase (SCD) (Mus musculus, UniProt P13516).
T2 construct: Reactions are started by adding 2 mg of microsomal protein; from tissue; host or cells: liver microsomes of male ICR mice on a high-carbohydrate, low fat diet
T2 sequence (P13516 1-355): T1 sequence (P13516 1-355)
Description: HTS microsomal assay of stearoyl-CoA desaturase inhibition using mouse liver microsomes. In kind it is biochemical. The following applies: % SCD enzyme activity remaining at 10 μM test compound. As to the method:
The absence of mitochondrial contamination is enzymatically assessed.
The compounds are analyzed with an HTS microsomal assay.
(Microsomes from liver hold many membrane-bound enzymes, among them those of drug oxidation.)

Each structure is given as a SMILES string.

In turn, `O=C(NCCc1ccc(F)cc1F)c1ccc(N2CCN(C(=O)c3ccccc3C(F)(F)F)CC2)nn1` [6-[4-(2-TRIFLUOROMETHYLBENZOYL)PIPERAZIN-1-YL]PYRIDAZINE-3-CARBOXYLIC ACID [2-(2,4-DIFLUOROPHENYL)ETHYL]AMIDE] gave a melting point of 179 to 181 °C. In data set [1], this compound showed an IC50 of 0.02 µM. This compound also returned an IC50 in data set [2] of 0.02 µM. In addition, in data set [3], the “Mouse microsome SCD activity % remaining @ 10 μM” value was found to be 5%.

`O=C(NCCC1CC1)c1ccc(N2CCN(Cc3ccccc3C(F)(F)F)CC2)nn1` [6-[4-(2-TRIFLUOROMETHYLBENZYL)PIPERAZIN-1-YL]PYRIDAZINE-3-CARBOXYLIC ACID (2-CYCLOPROPYLETHYL)AMIDE]: the melting point is 106 to 108 °C. In data set [1], this compound yielded an IC50 of 0.09 µM. In data set [2], this compound displayed an IC50 of 0.04 µM. Besides, the “Mouse microsome SCD activity % remaining @ 10 μM” value in data set [3] is on record as 12%.

As to `O=C(NCc1ccccn1)c1ccc(N2CCN(C(=O)c3ccccc3C(F)(F)F)CC2)nn1` [Example 30, 6-[4-(2-TRIFLUOROMETHYLBENZOYL)PIPERAZIN-1-YL]PYRIDAZINE-3-CARBOXYLIC ACID (PYRIDIN-2-YL-METHYL)AMIDE], the melting point lay in the range of 179 to 181 °C.

For the compound `O=C(NCCc1ccc2c(c1)OCO2)c1ccc(N2CCN(C(=O)c3ccccc3C(F)(F)F)CC2)nn1` [Example 30.1, 6-[4-(2-TRIFLUOROMETHYLBENZOYL)PIPERAZIN-1-YL]PYRIDAZINE-3-CARBOXYLIC ACID (2-BENZO[1,3]DIOXOL-5-YL-ETHYL)AMIDE], the melting point lay within 162 to 164 °C.

`O=C(NCCC1CC1)c1ccc(N2CCN(C(=S)c3ccccc3C(F)(F)F)CC2)nn1` [Example 31, 6-[4-(2-TRIFLUOROMETHYLTHIOBENZOYL)PIPERAZIN-1-YL]-PYRIDAZINE-3-CARBOXYLIC ACID (2-CYCLOPROPYLETHYL)AMIDE]: the melting point was 117 to 120 °C.

For the origin of these results see US20110021530A1, “PYRIDAZINE DERIVATIVES AND THEIR USE AS THERAPEUTIC AGENTS IN THE TREATMENT OF SKIN DISORDERS” (XENON PHARMACEUTICALS INC., priority 2008, published 2011).
